How the values were obtained:
PC3 cells = experiment: DNA synthesis (BrdU incorporation) in PC3 cells; type: cell-based; conditions: cycling or androgen-stimulated (10 nM R1881) cells, compound 1 µM
Experimental: Cells on coverslips were pulsed in vivo with BrdU (Sigma-Aldrich; at 100 μM, final concentration) and left unchallenged or challenged with 10 nM R1881 for 18 h, in the absence or presence of the indicated compounds. Cells were fixed, permeabilized, washed and the BrdU incorporation was analysed as reported. Nuclei were stained with Hoechst and cells on coverslips were scored by IF microscopy, using a DMLB Leica (Leica) fluorescent microscope, equipped with HCX PL Apo 63 × oil objective. Different fields from each coverslip were analyzed and BrdU incorporation was calculated by the formula: percentage of BrdU-positive cells = (No. of BrdU-positive cells/No. of total cells) × 100. Data in the graphs derive from at least 1000 scored cells for each coverslip. Representative images were captured using DC480 camera (Leica) and acquired using Leica Suite software. They are representative of three different experiments.

LNCaP cells = experiment: Wound scratch assay in LNCaP cells; type: cell-based, human; conditions: 10 nM R1881, 20 h, compound 1 μM
Experimental: (§1) In wound scratch analysis, 1.8 × 10^5 cells were seeded in a 24-well plate and made quiescent. Cells were then wounded using 10 µl sterile pipette tips and washed with PBS. They were left un-stimulated or stimulated for the indicated times, in the absence or presence of the selected compounds. To avoid cell proliferation, cytosine arabinoside (Sigma-Aldrich) at 50 μM (final concentration) was included in the cell medium. Different fields were analysed by contrast-phase microscopy, as below described in this section. Migration and invasion assays were done as reported. In migration assay, we used 3 × 10^4 cells in collagen pre-coated Boyden’s chambers with 8 μm polycarbonate membrane (Falcon). The indicated stimuli were added to the upper and the lower chambers. […] Migrating and invading cells were scored by fluorescence microscopy, as below described in this section.
(§2) In wound scratch assay, different fields were analysed using DMIRB inverted microscope (Leica) equipped with N-Plan 10 × objective (Leica), as reported. LNCaP organoids were analysed using the same microscope equipped with C-Plan 40 × or HCX PL Fluotar 63 × objectives (Leica). […] The relative organoid size was calculated using the same software and expressed as a fold increase over the basal organoid size (measured at 3th day). The wound gap was calculated using Image J Software and expressed as % of the decrease in the wound area. […]

DU145 cells = experiment: Wound scratch assay in DU145 cells; type: cell-based; conditions: cycling or quiescent cells, 10 nM R1881, compound 1 µM
Experimental: as §1, §2

22Rv1 cells = experiment: Invasion assay, 22Rv1 cells; type: cell-based, human; conditions: 10 nM R1881, compound 1 μM; compared with LNCaP
Experimental: as §1, §2

DU-CaP cells [1] = experiment: Transmigration assay, DU-CaP cells; type: cell-based, human; conditions: 10 nM R1881, compound 1 μM; compared with LNCaP
Experimental: as §1, §2

DU-CaP cells [2] = experiment: Invasion assay, DU-CaP cells; type: cell-based, human; conditions: 10 nM R1881, compound 1 μM; compared with LNCaP
Experimental: as §1, §2

PSA = PSA secretion (ELISA) from LNCaP cells; type: cell-based, human; conditions: compound 1 μM; for androgen-induced PSA secretion: 10 nM R1881, 48 h; for PSA secretion when used alone: no R1881
Experimental: It was done in culture medium using the PSA ELISA kit (Abnova-Taiwan Corporation, Taiwan), according to the manufacturer’s instructions. Released PSA was analyzed at 450 nm using the EnSpire Multimode Plate Reader (Perkin-Elmer, U.S.A.).

ERK, RSK = experiment: Western blot of ERK and RSK activation in LNCaP cells; type: cell-based, human; conditions: compound 1 μM; for androgen-triggered ERK and RSK activation: 10 nM R1881, 10 min; for ERK and RSK phosphorylation/activation when used alone: no R1881
Source text: All performed as reported. The mouse monoclonal anti-AR (441; Santa Cruz) antibody was used in Co-Ip or WB approaches. TRPM8 was detected using the rabbit polyclonal anti-TRPM8 (NBP1-97311; Novus Biological). […] The rabbit polyclonal anti-ERK (C-14; Santa Cruz), antibody was used to detect total ERK. FAK and P-Tyr397 FAK were detected using the mouse monoclonal anti-FAK (Clone 77/610077 BD Transduction Laboratories) or anti P-Tyr397 FAK (Clone 14/611722; BD Transduction Laboratories) antibodies, respectively. P-Tyr118 paxillin and total paxillin were detected using the rabbit polyclonal anti-P-Y118 (#2541, Cell Signaling) or the mouse monoclonal anti-paxillin (clone 349; BD Biosciences) antibodies, respectively. […] P-Tyr 416 Src and Src were detected using the rabbit monoclonal anti P-Tyr 416 Src (#6943; Cell Signaling) or the mouse monoclonal anti Src (Calbiochem) antibodies, respectively. ERα and ERβ were detected using the rabbit polyclonal anti-ERα (543; Santa Cruz) or anti-ERβ (Upstate Biotechnology, U.S.A.) antibodies. Cyclin D1, p27 and Cdk4 were stained using the mouse monoclonal anti-cyclin D1 (clone AM29; from Zymed Laboratories Inc.), the rabbit polyclonal anti-p27 (C-19; Santa Cruz) or anti Cdk-4 (c-22; Santa Cruz) antibodies, respectively. The mouse monoclonal anti-tubulin (Sigma-Aldrich) antibody was used to detect tubulin. The ECL system (GE Healthcare) was employed to reveal immune-reactive proteins. Densitometric analysis of WB was performed by using Image J Software (https://imagej.nih.gov/ij).

SMILES	BrdU incorporation (PC3 cells)	wound-gap closure in androgen-treated cells (LNCaP cells)	wound closure (DU145 cells)	androgen-induced invasion (22Rv1 cells)	androgen-induced migration (DU-CaP cells [1])	androgen-induced invasion (DU-CaP cells [2])	androgen-induced PSA secretion (PSA)	PSA secretion when used alone (PSA)	androgen-triggered ERK and RSK activation (ERK, RSK)	ERK and RSK phosphorylation/activation when used alone (ERK, RSK)
COC(=O)[C@H](Cc1c[nH]c2ccccc12)N(Cc1ccccc1)Cc1ccccc1 [Compound 6]	did not affect	stronger effect	did not modify	Superimposable results	Superimposable results	Superimposable results	negligible inhibition	Neither the two TRPM8 antagonists, nor enzalutamide did modify such response	inhibited	leaving unaffected
c1ccc(COc2ccc3[nH]cc(CCNCc4ccc(Oc5ccccc5)cc4)c3c2)cc1 [Compound 4]	did not affect	stronger effect	did not modify	Superimposable results	Superimposable results	Superimposable results	negligible inhibition	Neither the two TRPM8 antagonists, nor enzalutamide did modify such response	inhibited	leaving unaffected
